According to US6667025B2 (Mitsubishi Pharma Corporation, priority 1997, dated 2003):

Legend:
[1] = tested on: skin allograft, WKAH donor and F344 recipients; format: in vivo
From the text: Two MHC-incompatible rat strains were selected, WKAH donor (RT1^k) and F344 recipients (RT1^IV1). Full-thickness skin grafts (2.0×2.0 cm square) were transplanted to the lateral thorax of recipients and wrapped with sterile, bactericidal gauze. The chest was then wrapped with an elastic bandage. Five days after transplantation, the wraps were removed and the grafts inspected daily for rejection. Rejection was defined as more than 90% necrosis of graft epithelium.

[2] = tested on: cardiac allograft, WKAH donors and ACI recipients; test: Heterotopic cardiac allograft survival, MHC-incompatible rat strains; format: in vivo
[3] = tested on: IL-2 mRNA in alloantigen-stimulated splenic T cells; test: IL-2 mRNA expression in allogeneic mixed lymphocyte culture (PCR); format: cell-based, rat; settings: 48 hours
Experimental: The housekeeping gene HPRT was used as an internal control in order to compare levels of IL-2 mRNA levels relative to the HPRT mRNA levels, as detailed below.
Allogeneic mixed lymphocyte culture was carried out by using nylon-nonadherent spleen cells of F344 rat (RT1^1v1) as responder cells and the spleen cells of WKAH rat (RT1^k) pretreated with 40 μg/ml of mitomycin C for 30 min as stimulator cells. […] After culturing for 48 hours, the cells were recovered by centrifugation. The expression of IL-2 mRNA in the cells was determined by a polymerase chain reaction (PCR) method.
Total RNA was reverse transcribed in […] of buffer solution containing 10 mmol/L Tris-HCl (pH 8.3),50 mM KCl, 5 mM MgCl2, 1 mM each dNTP (dATP, dGTP, dTTP and dCTP), 60 U RNase inhibitor (Takara Ltd. Tokyo, Japan), 15 U avian myelobalastosis virus reverse transcriptase (Takara Ltd.) and 150 pmol random 9-mers at 30° C. for 10 min and 42° C. for 30 min. Primer sequences for IL-2 and hypoxanthine-guanine phosphoribosyltransferase (HPRT) were taken from the previous report (44).
The length in base pairs of the PCR products of IL-2 and HPRT are 351 and 608 bp respectively. […] Fluorescence intensity of the specific bands was visualized by fluorescence image analyzer (FLUOR IMAGER 575®, Molecular Dynamics).

C=CC[C@@H]1/C=C(\C)C[C@H](C)C[C@H](OC)[C@H]2O[C@@](O)(C(=O)C(=O)N3CCCC[C@H]3C(=O)O[C@H](/C(C)=C/[C@@H]3CC[C@@H](O)[C@H](OC)C3)[C@H](C)[C@@H](O)CC1=O)[C@H](C)C[C@@H]2OC [TRL, tacrolimus, reference compound]
median survival time (MST) of skin graft ([1]; 10 mg/kg for 14 days): 22.5 days
oral dose that significantly prolonged skin graft survival ([1]; oral, WKAH to F344 rats): ≥ 0.3 mg/kg
induction of long-term cardiac graft survival ([2]; even at the highest dose tested): hardly induced long-term graft survival
dose that significantly prolonged cardiac allograft survival ([2]; vs control): ≥ 1 mg/kg
concentration that inhibited IL-2 mRNA expression [3]: ≥ 1 nM
